Reference: a melting point compilation (Tetko et al.; mined from patent text by program, amines drawn as free bases though some values may be those of a salt)

| melting point [°C] | Compound |
| --- | --- |
| 146 to 147 | N#Cc1ccc(C2C(=O)N(CC3CC3)Cc3cncn32)cc1 (stereo not drawn) |
| 233 to 234 | CCCc1nc(N)nc(O)c1I |
| > 330 | COc1cc2c(cc1OC)-c1[nH]c3ccc([N+](=O)[O-])cc3c1CC(=O)N2 |
| 112 to 114 | CCOC(=O)/C=C/c1ccc(Cn2ccnc2)c(Cl)c1 |
| 142 to 144 | CN(c1ccc(OCc2ccc(OC(F)(F)F)cc2)cc1)C1CCN(c2ccc(OC[C@H]3CCn4cc([N+](=O)[O-])nc4O3)cc2)CC1 |
| 181 | CCc1nc2c(C)cc(C)nc2n1C1CCc2cc(-c3ccccc3-c3nnn[nH]3)ccc21 (stereo not drawn) |
| 121 to 123 | CCCC(=O)NCc1cccc2c1C(=O)N(C1CCC(=O)NC1=O)C2=O (stereo not drawn) |
| 50 to 53 | CC(C)(C)c1ocnc1C=C(O)C(=O)N[C@@H](Cc1ccccc1)C(N)=O |
| 175 to 176 | COc1c(C)c(C)c(OC)c(CN2C(=O)[C@H]3CCC[C@H]3Nc3ccccc32)c1C (relative stereo) |
| 160 | COc1ccc(CN(C)CCCc2ccc(NC(=O)c3cccc4c(=O)c5cc(F)ccc5sc34)cc2)cc1OC |
| 165 | Cc1c(CC(=O)NC2CCN(Cc3ccc(Cl)c(Cl)c3)CC2)cnn1-c1ccccc1 |
| 198 to 199 | CC(/C=C/C1=C(c2ccc3c(c2)C(C)(C)CCC3(C)C)CCCC1)=C\C(=O)O |
| 107 to 110 | Cc1cn(C2CC(O)C(COC(c3ccccc3)(c3ccccc3)c3ccccc3)O2)c(=O)[nH]c1=O (stereo not drawn) |
| 194 to 195 | CC(C(=O)O)c1ccc2oc3ncccc3c(=O)c2c1 (stereo not drawn) |
| 147 to 149 | Nc1ccc(NC(=S)NC2CCCCC2)cn1 |
| 103 to 104 | Cc1ccc(-c2nc(C)cc(Cl)n2)cc1 |
| 77 to 79 | CC(C)C[C@H](NC(=O)OCC1CCCCCC1)C(=O)N[C@@H](Cc1ccccc1)C(=O)CSCc1ccco1 |
| 127 to 128 | Cc1oc(-c2ccccc2)nc1CCc1nc(COc2cccc(CC(=O)O)c2)co1 |
| 209 | CC(C)(OCc1cc2nc(Cl)ccc2n1S(=O)(=O)c1cccc2ccccc12)C(=O)O |
| 111 to 113 | S=C(NCc1cccc2ccccc12)N1CCc2c([nH]c3ccccc23)C1c1ccc2c(c1)OCO2 (stereo not drawn) |
| 360 to 364 | NC(=O)c1nc(-c2cccc(O)c2)nc2c1[nH]c(=O)n2-c1ccc(C(F)(F)F)cc1 |
| 88 to 89 | C[Si](C)(C)OC(CCl)(Cn1ccnc1)c1ccc(F)cc1F (stereo not drawn) |
| 135 to 136 | O=C(NCCO)c1cccc(-c2cccc3oc(Cc4cccc(C(F)(F)F)c4)cc23)c1 |
| 87 to 94 | CCCC/C=C\c1c([C@H](O)[C@H](CCCC)NC(=O)[C@H](CC(C)C)NC(=O)OCc2ccccc2)c1=O |

| melting point [°C] | Compound |
| --- | --- |
| > 250 | O=C(Nc1ccncc1)c1ccc(C2=NCCN2)cc1 |
| 115 to 117 | CCCc1cc(=O)n(-c2cc(OC(C)C)c(Cl)cc2F)c(=O)n1C |
| 159 to 161 | COc1cc(C(=O)O)c(N)cc1OCc1ccccc1 |
| 192 to 193 | CN(C)C(=O)c1cn(Cc2ccccc2)c(=O)c2c1c1cc(F)ccc1n2C |
| 93 to 94.5 | COc1ccc(OCc2ccccc2)c(C(=O)OCc2ccccc2)c1 |
| 83 to 85 | CCc1nc2ccccc2c(C(=O)OCC(=O)OC(C)(C)C)c1Oc1ccc(-c2ccccc2C#N)cc1 |
| 131 to 134 | CCC1(O)CCC2C3CCC4=C(CC=C(OC)C4)C3CCC21C (stereo not drawn) |
| 170 | Cc1nc2ccccn2c(=O)c1CCN1CCC(c2noc3cc(F)ccc23)CC1 |
| 216 to 217 | NC(=O)c1cc2ccccc2cc1O |
| 112 to 115 | Ic1ccc(-c2cccnc2)cc1 |
| 214 to 216 | CCc1ccc(-c2c3ccccc3c(-c3ccc(CC)cc3)c3cc(Cl)ccc23)cc1 |
| 59 to 61 | CCOC(=O)CCc1cc(OC)ccc1C(=O)CCCNC(C)=O |
| 260 | Oc1cnc2cc(C(F)(F)F)ccc2n1 |
| 93 to 95 | CCCCc1nn(-c2ccccc2C(F)(F)F)c(=O)n1Cc1ccc(-c2ccccc2S(=O)(=O)NC(=O)[C@H]2CC2(C)C)cc1 |
| 109 to 111 | CC1(C)CC(c2ncccn2)c2cc(C#N)ccc2O1 (stereo not drawn) |
| 161 to 162 | CCCOc1ccccc1CCOc1ccc2c(c1)C=C(C(=O)Nc1ccc(CN(C)C3CCOCC3)cc1)CCS2(=O)=O |
| 175 to 176 | COc1ccc(/C(C)=C/c2ccc(C(=O)O)cc2)cc1C1(C)CCCCC1 |
| 143 to 144 | C/C(NCC(C)(C)C)=C(\C#N)C(N)=S |
| 63 to 64 | c1ccc(-c2nc(COc3cccc(CCCn4ccnc4)c3)cs2)cc1 |
| 41 to 42 | C[Si](C)(O[Si](C)(C)c1cccnc1F)c1cccnc1F |
| 159 | CC(C)(C)NS(=O)(=O)c1ccccc1-c1ccc(NC(=O)C(=O)O)cc1 |
| 153 to 155 | COC(=O)CCCNC(=O)/C=C/C=C/c1ccccc1 |
| 131 to 133 | c1ccc2c(OCC3CO3)c(OCC3CO3)ccc2c1 (stereo not drawn) |
| 223 to 226 | CN1CCN(c2ccc(/C=C/C(=O)O)cc2)CC1 |

| melting point [°C] | Compound |
| --- | --- |
| 229 to 230 | CN1CCN(c2ccc(Br)c3c2C[C@H](NC(=O)c2ccc(C(F)(F)F)cc2)CC3)CC1 |
| 260 | CCCc1nn(C)c2c(=O)[nH]c(Cc3ccc(O)cc3)nc12 |
| 124 to 128 | CSC1C(=O)Nc2ccc(Oc3ccccc3)cc21 (stereo not drawn) |
| 212 to 214 | C(#Cc1ccc(C=CC2=CC(c3ccc(C#Cc4ccccc4)cc3)N(c3ccccc3)N2)cc1)c1ccccc1 (stereo not drawn) |
| 94 | O=C(O)CNC(=O)C(CS)Cc1ccc2c(c1)OCO2 (racemic) |
| 157 to 158 | Cc1oc(-c2ccccc2)nc1COc1ccc(COc2cccc(CCC(=O)O)c2)cc1 |
| 131 to 133 | COc1cc2c(cc1F)C1(CO2)C(=O)N(CC2CCCCO2)c2ccccc21 (stereo not drawn) |
| 83.5 to 86 | C=CCNc1cc(OCC=C)c(C(=O)O)cc1Cl |
| 198 to 200 | Fc1ccccc1-c1noc2c(Cl)c(OCc3nnn[nH]3)ccc12 |
| 252 to 253 | CS(=O)(=O)c1ccc(-c2cnn(-c3ccc([N+](=O)[O-])s3)c(=O)c2-c2ccc(F)cc2)cc1 |
| 150 to 158 | CC(C)(Cc1cc(F)cc(F)c1)NCC(O)c1cc(OCc2ccccc2)cc2c1OCC(=O)N2 (stereo not drawn) |
| 80 | COC(=O)c1ccc(C(=O)c2cccc3ccccc23)n1C |
| 166 | Cc1cc(-n2ccnc2)c2cccc(OCc3c(Cl)ccc(S(=O)(=O)N4CC[C@@H](O)C4)c3Cl)c2n1 |
| 93 to 94 | CNC(=O)C1Cc2c(nc(C)n2C)C2=C1C(=O)CC1(Cc3ccccc3C1)N2 (stereo not drawn) |
| 258 to 261 | Cc1oc2c(NC(=O)c3c(Cl)ccc(CO)c3Cl)cccc2c1C |
| 172 to 174 | CN(C)Cc1ccc2sc(S(N)(=O)=O)cc2c1 |
| 116 to 118 | CCOC(=O)COc1cc2c(c(Cl)c1Cl)C(=O)C(CC)C2 (stereo not drawn) |
| 185 to 187 | CN(C)c1ccc([N+](=O)[O-])c(C(=O)O)c1 |
| 62.5 to 63.5 | O=C=Nc1c(Cl)c(Cl)cc(Cl)c1Cl |
| 274 to 277 | COc1ccc(/C=C/c2ccc3cc(C(=O)O)ccc3n2)cc1 |
| 182 to 183 | Cc1cccc2n[nH]c(=O)n12 |
| 198 to 199 | O=C(c1ccccc1)N1Cc2c(-c3noc(C4CC4)n3)ncn2-c2ccccc21 |
| 173 to 174 | CC(=O)OC1OCC[C@@H]1NC(=O)[C@@H](NC(=O)OCc1ccccc1)C(C)C (stereo partly drawn) |
| 76 | O=[N+]([O-])C(CN1CCN(c2ccccc2)CC1)c1ccccc1 (stereo not drawn) |

| melting point [°C] | Compound |
| --- | --- |
| 128 to 130 | CC(C)OC(=O)NC(C(=O)N1CCCC1C(=O)O)C(C)(C)SC(C)C (stereo not drawn) |
| 169 to 176 | O=C(O)CCCc1cc2nc(Cl)ccc2n1S(=O)(=O)c1ccc(-c2cnco2)cc1 |
| 77 | CCSc1cccc(OC(F)(F)F)c1S(=O)(=O)NC(C)(C)C |
| 38 to 39 | OCC(CO)OCc1ccccc1 |
| 81 to 83 | CCOC(=O)C(CC)Nc1ccc2ccccc2c1 (stereo not drawn) |
| 269 to 271 | COc1cc2nc(Cl)n3cnnc3c2cc1OC |
| 192 to 194 | O=S(=O)(Oc1ccc2c(OS(=O)(=O)c3ccc(O)cc3)c3cc(OS(=O)(=O)c4ccc(O)cc4)ccc3cc2c1)c1ccc(O)cc1 |
| 150 to 151 | N#Cc1ccc2[nH]nc(-c3ccccc3)c2c1 |
| 101 to 102 | CS(=O)(=O)OCC(c1ccccc1)c1ccccc1 |
| 79 to 83 | CC1(C)Cc2ccc(C(F)(F)F)c(C#N)c2O1 |
| 121 | O=C(NCCN1CCC(O)(c2ccc(Cl)cc2)CC1)c1ccccc1Br |
| 183 | S=C(NC1CCCCC1)N1CCc2[nH]cnc2C1 |
| 179 to 180 | CC(=O)c1nc2ccc(S(=O)(=O)c3ccccc3)cc2cc1O |
| 165 to 167 | Cn1c(COc2ccc(CC3SC(=O)NC3=O)cc2)nc2ccc(OCCc3ccc(C(C)(C)C)c(NC(=O)Nc4ccc(C(F)(F)F)cc4)c3)cc21 (stereo not drawn) |
| 112 to 113 | COC(=O)Cc1ccc(O)c(NC(=O)C(C)(C)C)c1 |
| 210 to 214 | COc1cc2c(cc1OC)-c1c(-c3ccccc3)c(-c3cc(C)c(O)c(C)c3)c(C)n1CC2 |
| 228 | N#CC1=C(C2CCCCCC2)Nc2n[nH]cc2C1c1cccc2nonc12 (stereo not drawn) |
| 227 | CC(C)(C)COc1ccc(NC(=O)c2cc3ccccc3s2)cc1C#N |
| 223 to 224 | COc1ccc(Nc2nnc(Cc3ccncc3)c3ccccc23)cc1 |
| 190 to 192 | CCC(CC)Oc1cc(C)nc2c1COCN2c1c(C)cc(Cl)cc1C |
| 138 to 139 | O=C(O)[C@H](Cc1ccc(OCc2ccccc2)cc1)NS(=O)(=O)c1ccc(F)cc1 |

| Compound | melting point [°C] |
| --- | --- |
| CN(C)C1(c2ccccc2)CCC2(OCCc3c2[nH]c2ccccc32)C(Sc2ccccc2)C1 (stereo not drawn) | 228 to 233 |
| O=C(NC1CN2CCC1CC2)c1cccc2nc(-c3ccc(Cl)cc3)oc12 (stereo not drawn) | 181 to 183 |
| CCCCCN(C)C12CN3CN(CN(C3)C1)C2 | 30 to 31 |
| CN(C=O)C1CCN(CC2=Cc3ccccc32)CC1 | 86 to 88 |
| COC(=O)c1cc(C(=O)c2ccc(OC)c3ccccc23)cn1C | 162 |
